Laboratory results published in patent publication EP1087941B9, “THIOLESTERS AND USES THEREOF” (THE UNITED STATES OF AMERICA, as represented by THE …, priority 1998, dated 1999).
Read-outs that look alike come from different tables or passages of the source.

Columns and labels:
[1] = molecular target: T1, recombinant HIV-1 reverse transcriptase (Human immunodeficiency virus type 1 group M subtype B, UniProt P03366); assay: Reverse transcriptase assay with rAdT and rCdG template/primer; assay type: biochemical; settings: for IC50: Table 7, high dose test of 100 µM
T1 construct: using recombinant HIV-1 reverse transcriptase; S. Hughes, ABL Basic Research NCI-FCRDC, Frederick MD (supplied, not a catalogue product)
Protocol: (§1) The 5-bromovaleroyl thioester, compound 44, and two 5-pyridiniovaleroyl thioesters, compounds 45 and 47, were analyzed in mechanistic and target-based assays. […] Assays for activity against HIV-1 reverse transcriptase rAdT (template/primer) and rCdG (template/primer) using recombinant HIV-1 reverse transcriptase (S. Hughes, ABL Basic Research NCI-FCRDC, Frederick MD) were performed as described by Rice (1997) supra. Substrate cleavage of recombinant HIV-1 protease in the presence of test compounds using an HPLC-based methodology with the artificial substrate Ala-Ser-Glu-Asn-Try- Pro-Ile-Val-amide (Multiple Peptide Systems, San Diego CA) was performed as described by Rice (1997) supra. The ability of recombinant HIV-1 integrase (S. Hughes, ABL Basic Research NCI-FCRDC, Frederick MD) to carry out 3' processing and strand transfer activities in the presence of test compounds was performed as described by Buckheit (1994) AIDS Res. Hum. Retroviruses 10:1497-1506, and Turpin (1998) Antimicrob. Agents Chemother. 42: 487-494.

[2] = molecular target: T2, Pr^55gag precursor (Human immunodeficiency virus type 1 group M subtype B, UniProt P03347); assay: Gag precursor cross-linking and processing in TNFα-induced U1 cells, Western blotting; assay type: cell-based, HIV-1; settings: for cross-linking of viral precursor polyproteins: TNFα-induced U1 cells, Western blotting; for Pr^55gag precursor processing: after reduction with β-ME, compound 45 at 100 µM
T2 construct: Visualization of viral proteins from TNFα-induced U1 cells by electrophoretic separation and immunoblotting; endogenous in cells; host or cells: TNFα-induced U1 cells (integrated HIV-1 provirus)
Protocol: Thiolester compounds were also tested for their ability to inhibit HIV-1 replication in TNFα-induced U1 and ACH-2 cells. U1 cells were induced with 5 ng/ml of TNFα in the presence of various concentrations of the thiolesters 44, 45 or 47. Forty-eight hours later the cultures were characterized for virus p24 antigen production and cell viability. […] Compound 44 killed 60% of the cells at 200 µM. […] Precursor processing evaluation performed as described by Turpin (1997) Antiviral Chem. Chemother. 8:60-69. Thus, thiolester PATEs initiate intracellular disulfide cross-linking of precursor polyproteins during late phase virus assembly and mediate a direct virucidal effect via an attack on the mature NCp7 retroviral zinc fingers in the cell-free virus.
Virion cross linking was performed as described by Rice (1995) Science 270:1194-1197 and Turpin (1997) Antiviral Chem. Chemother. 8:60-67. Briefly, highly purified HIV-1 MN (11.8 µg total protein) was incubated for 2 hour with concentrations of compound. Virions were concentrated and residual compound was removed by centrifugation (18,000 x g, 1 h, 4°C). The viral pellet was solubilized in 0.5 M Tris-HCl,(pH 6.8), 50% glycerol, 8% SDS and 0.4% bromophenol blue and proteins resolved by Western blotting. Western blotting to detect the expression of HIV-1 proteins in U1 cells or virus pellets for virion cross-linking experiments was carried out as described by Turpin (1996) J. Virol. 70:6180-6189. Briefly, 50 µg of total cellular protein for U1 experiments or the total virion pellet (11.8 µg total viral protein) for NCp7 cross linking studies was resolved on 4 to 20% polyacrylamide gels in SDS with Tris-Glycine (Novex, San Diego CA). Samples for reduced gels were boiled for 5 min in the presence of 5% β-ME prior to loading. Resolved proteins were electroblotted on to polyvinylidene difluoride (PVDF) membranes, and HIV-1 specific proteins were detected using a mixture of goat anti- HIV-1 NCp7 and p24 or anti-NCp7 for virion proteins alone (a kind gift of L. E. Henderson, AIDS Vaccine Program NCI-FCRDC, Frederick, MD). Western blots were developed using standard chemiluminescence methodologies, as produced and described by Dupont-NEN, Wilmington, DE.

[3] = molecular target: T3, recombinant HIV-1 protease (Human immunodeficiency virus type 1 group M subtype B, UniProt P03366); assay: HPLC-based protease substrate cleavage assay; assay type: biochemical; settings: for IC50: Table 7, high dose test of 100 µM, read-out: Protease I50
T3 construct: Substrate cleavage of recombinant HIV-1 protease
Protocol: as §1

[4] = rAdT template/primer, read-out: Reverse transcriptase rAdT I50
[5] = rCdG template/primer, read-out: Reverse transcriptase rCdG I50

SMILES	inhibition of HIV-1 reverse transcriptase enzyme activity [1]	IC50 [1, 4]	IC50 [1, 5]	cross-linking of viral precursor polyproteins [2]	inhibition of HIV-1 protease enzyme activity [3]	IC50 [3]	Pr^55gag precursor processing [2]
CC(=O)NS(=O)(=O)c1ccc(NC(=O)c2ccccc2SC(=O)CCCCBr)cc1 [Compound 44, N-[2-(5-bromovaleroylthio)benzoyl]sulfacetamide]	did not inhibit	> 100 µM	> 100 µM	induced β-ME reversible alterations in the mobility of zinc finger containing HIV-1 precursor proteins	did not inhibit	> 100 µM	
CC(=O)NS(=O)(=O)c1ccc(NC(=O)c2ccccc2SC(=O)CCCC[n+]2ccccc2)cc1 [Compound 45, N-[2-(5-pyridinio-valeroylthio)benzoyl]sulfacetamide bromide]	did not inhibit	> 100 µM	> 100 µM	induced cross-linking of viral precursor polyproteins	did not inhibit	> 100 µM	inhibited Pr^55gag precursor processing
O=C(CCCC[n+]1ccccc1)Sc1ccccc1C(=O)Nc1ccc(S(=O)(=O)c2ccc([N+](=O)[O-])cc2)cc1 [Compound 47]	did not inhibit			induced cross-linking of viral precursor polyproteins	did not inhibit		inhibited Pr^55gag precursor processing
